# According to the supplement of paper PMC11208160:
# Assay: recombinant UMI read abundance after kanamycin selection (control-corrected) (log10(CPM+1)); higher = more efficient recombination; extreme values may be limits of the assay; sequences stand for … in AGTGCAGAGAAAATCGGCCAGTTTTCTCTGCCTGCAGTCCGCATGCCGTGGGACCCCTTGGGTTCTAACCTGTTGCCTAGATTTATGCAGCGGACTGCCTTTCTCCCAAAGTGATAAACCGG…AGGTTGGTTTCACT; site = the 11-nt donor
# Outline: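 In a pooled Escherichia coli screen for the IS621 bridge recombinase, donor and donor-binding-loop pairs were each placed with a 12-nt UMI on a plasmid bearing a promoterless kanamycin gene. This library was co-electroporated with a target plasmid encoding a fixed target and T7-inducible recombinase, and cells were plated either on IPTG (0.07 mM) plus kanamycin or without selection, in two replicates each. Recombinant UMIs were PCR-amplified across the donor–target junction and sequenced, and counts were converted to CPM, averaged over replicates, scaled by control-derived factors and reported as log10(CPM+1).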
row,Sequence,recombinant UMI read abundance (log10)
1,TGTTCCCCATGGACCGGTTTTCCCGGTAATCCGTATTTGGA (site TGTTCCCCTTT),0.02
2,CGCGGTCCATGGACCGGTTTTCCCGGTAATCCGTATTTGCA (site CACGGTCCTTG),0
3,GTCGTTCCATGGACCGGTTTTCCCGGTAATCCGTATTTGGT (site GTTGTTCCTAC),0.00325
4,ACCAATTCATGGACCGGTTTTCCCGGTAATCCGTATTTGCC (site GCCAATTCTGG),0.507
5,ACTAGTGCATGGACCGGTTTTCCCGGTAATCCGTATTTGGC (site ACTAGTGCTCC),0.0166
6,AGGAAGACATGGACCGGTTTTCCCGGTAATCCGTATTTGCA (site AGCAATACTTG),0
7,GATAGAACATGGACCGGTTTTCCCGGTAATCCGTATTTGGC (site GATAGAACTGC),1.7
8,GGTCGAACATGGACCGGTTTTCCCGGTAATCCGTATTTGTA (site GGTCTAACTTA),0.00734
9,GTGCAGGCATGGACCGGTTTTCCCGGTAATCCGTATTTGGT (site GTGCATGCTAC),0.279
10,TCAGACTCATGGACCGGTTTTCCCGGTAATCCGTATTTGCA (site TCATACTCTTG),0.807
11,GCGGGCGCATGGACCGGTTTTCCCGGTAATCCGTATTTGAT (site GCGGGCGCTAT),1.44
12,GCGAAAACATGGACCGGTTTTCCCGGTAATCCGTATTTGCT (site GCGAAAACTGG),0
13,CTAGTATCATGGACCGGTTTTCCCGGTAATCCGTATTTGTC (site CTAGTATCTGG),3.08
14,CCGTTAGCATGGACCGGTTTTCCCGGTAATCCGTATTTGTG (site CCGTTAGCTCG),0
15,AGATAGACATGGACCGGTTTTCCCGGTAATCCGTATTTGCC (site TGATAGACTGG),2.34
16,AGGAAGACATGGACCGGTTTTCCCGGTAATCCGTATTTGCA (site TCGAAGACTTG),1.81
17,GGTGCCACATGGACCGGTTTTCCCGGTAATCCGTATTTGGT (site GGTGCCACTAC),0.406
18,CCCGGTCCATGGACCGGTTTTCCCGGTAATCCGTATTTGCA (site CCCGGTCCTGG),0
19,GGTACGTCATGGACCGGTTTTCCCGGTAATCCGTATTTGCT (site GGTACGTCTAA),0.0386

row,Sequence,recombinant UMI read abundance (log10)
1,CAACTAACATGGACCGGTTTTCCCGGTAATCCGTATTTGGA (site CTACTAACTTC),0.341
2,AAAGCCACATGGACCGGTTTTCCCGGTAATCCGTATTTGTA (site AAAGCCACTTA),1.82
3,AGCCAAGCATGGACCGGTTTTCCCGGTAATCCGTATTTGAG (site ATCCAAGCTCT),0.655
4,AGATAGGCATGGACCGGTTTTCCCGGTAATCCGTATTTGCT (site AGAGAGGCTAG),0.862
5,GAGCTCACATGGACCGGTTTTCCCGGTAATCCGTATTTGTT (site GAGCTCACTAA),1.53
6,AGAACGGCATGGACCGGTTTTCCCGGTAATCCGTATTTGCT (site AGAATGGCTAG),0
7,GGCCCAACATGGACCGGTTTTCCCGGTAATCCGTATTTGTA (site GGACCAACTTA),0.0271
8,GATTATGCATGGACCGGTTTTCCCGGTAATCCGTATTTGGA (site CATTATGCTTC),1.13
9,CCCATAGCATGGACCGGTTTTCCCGGTAATCCGTATTTGTC (site CCCATAGCTGA),1.56
10,AAAAGTCCATGGACCGGTTTTCCCGGTAATCCGTATTTGTA (site TAAAGTCCTTA),1.12
11,GCAGATTCATGGACCGGTTTTCCCGGTAATCCGTATTTGTT (site GGAGATTCTAA),0
12,CCCTTCTCATGGACCGGTTTTCCCGGTAATCCGTATTTGAG (site CCCTTCTCTCC),0.00506
13,CAATCGCCATGGACCGGTTTTCCCGGTAATCCGTATTTGTG (site CAAACGCCTCA),0.0185
14,CGCATATCATGGACCGGTTTTCCCGGTAATCCGTATTTGTC (site CACATATCTGA),0
15,CGATCGGCATGGACCGGTTTTCCCGGTAATCCGTATTTGTT (site CGATCGACTAA),0.00492
16,ATAAAGCCATGGACCGGTTTTCCCGGTAATCCGTATTTGAC (site ATAACGCCTGT),0
17,TAGTGCCCATGGACCGGTTTTCCCGGTAATCCGTATTTGGC (site TAGTGCCCTGC),0
18,ATAGCTGCATGGACCGGTTTTCCCGGTAATCCGTATTTGTG (site ATAGCTGCTCA),1.35
19,CCGAATACATGGACCGGTTTTCCCGGTAATCCGTATTTGGC (site CCTAATACTGC),0
